US20210207064A1, “COMPOUND FOR RESTORING CONTAMINATED SOIL OR CONTAMINATED WATER” (FNG RESEARCH CO., LTD., priority 2018, published 2021)

Legend:
[1] = Heavy metal removal ability test in contaminated soil around a factory (WAK-Me test kit); conditions: 1.0 wt % aqueous solution, colour comparison test kit
Protocol: The contaminated soil around the factory in the industrial complex was collected, pulverized, and meshed to prepare fine particles of soil samples.
Each 3 ml of aqueous solutions for restoring soil was added to soil samples and mixed for 5 minutes.

[2] = Formaldehyde (formalin) removing ability test (GC); conditions: 2.0% formaldehyde solution, 3 molar equivalents of compound, room temperature; for Formaldehyde GC Area, 30 min: after 30 min; for Formaldehyde GC Area, 180 min: after 180 min; for Formaldehyde GC Area, Initial: initial state
[3] = Heavy metal removal ability test in contaminated soil (ICP-MS), nickel; conditions: for Nickel (Ni) Adsorption amount: contaminated soil; for Nickel (Ni) Adsorption rate: relative to EDTA control
Protocol: (§1) (1) Preparation of Soil Contaminated with Heavy Metal
(§2) After collecting and pulverizing uncontaminated soil, fine particles obtained by using a mesh were mixed with the aqueous heavy metal solution to prepare soil samples contaminated with heavy metals.
(§3) Each 3 ml of the prepared aqueous solution was added to a soil sample contaminated with heavy metals and mixed for 5 minutes.
(§4) 50 ml of distilled water was added to the contaminated soil mixed with the aqueous solution for restoring soil, stirred for 20 minutes, and settled for 1 hour, and a supernatant was prepared as a sample solution.
(§5) The prepared sample solution was analyzed for the heavy metal component using an Inductively Coupled Plasma Mass Spectrometer (ICP-MS) (Xseries™ 2, Thermo Fisher Scientific, UK).
(§6) Adsorption rate of heavy metals (%)=(Adsorption amount of Embodiment/Adsorption amount of Control)×100 Equation 1

[4] = Heavy metal removal ability test in contaminated soil (ICP-MS), cadmium; conditions: for Cadmium (Cd) Adsorption amount: contaminated soil; for Cadmium (Cd) Adsorption rate: relative to EDTA control
Protocol: as §1, §2, §3, §4, §5, §6

[5] = Heavy metal removal ability test in contaminated soil (ICP-MS), arsenic; conditions: for Arsenic (As) Adsorption amount: contaminated soil; for Arsenic (As) Adsorption rate: relative to EDTA control
Protocol: as §1, §2, §3, §4, §5, §6

human skin = experiment: Skin irritation test of active ingredient (patch method, CTFA guidelines); format: in vivo; conditions: 24 h patch; for Test result (number of subject) (+) / Test result (number of subject) (++) / Test result (number of subject) (±) / Test result (number of subject) (−): 20 people; for Test result (number of subject) (+): (+) apparent reddening; for Test result (number of subject) (++): (++) more reddened and swollen; for Test result (number of subject) (±): (±) slightly reddish; for Test result (number of subject) (−): (−) no erythema
Protocol: A filter paper disk was placed in an 8 mm diameter, 10 panels of pin chamber.
After 24 hours, the pin chamber was removed, and skin conditions were visually observed. The degree and grade for skin irritation were calculated according to the following Equation 2, and the results are shown in Table 4 below.
[Criteria for Skin Irritation]
(−): No erythema or particularly no symptoms; (±): slightly reddish than the periphery; (+): Apparent reddening than periphery; (++): More reddened and swollen than periphery.
[Grade for Skin Irritation]
Degree of irritation 0-0.1: Grade I (unstimulated);
Degree of irritation 0.11-0.3: Grade II (weakly stimulated);
Degree of irritation 0.31-0.5: Grade III (moderately stimulated);
Degree of irritation 0.51 or more: Grade IV (strongly stimulated)

SMILES | Total amount (Cu, Zn, Mn, Ni, Cd) [1] | Formaldehyde GC Area, 30 min [2] | Formaldehyde GC Area, 180 min [2] | Formaldehyde GC Area, Initial [2] | Nickel (Ni) Adsorption amount ([3]; content 0.5% aqueous solution) | Nickel (Ni) Adsorption rate ([3]; content 0.5%) | Nickel (Ni) Adsorption amount ([3]; content 1.0% aqueous solution) | Nickel (Ni) Adsorption rate ([3]; content 1.0%) | Nickel (Ni) Adsorption amount ([3]; content 2.0% aqueous solution) | Nickel (Ni) Adsorption rate ([3]; content 2.0%) | Cadmium (Cd) Adsorption amount ([4]; content 0.5% aqueous solution) | Cadmium (Cd) Adsorption rate ([4]; content 0.5%) | Cadmium (Cd) Adsorption amount ([4]; content 1.0% aqueous solution) | Cadmium (Cd) Adsorption rate ([4]; content 1.0%) | Cadmium (Cd) Adsorption amount ([4]; content 2.0% aqueous solution) | Cadmium (Cd) Adsorption rate ([4]; content 2.0%) | Arsenic (As) Adsorption amount ([5]; content 0.5% aqueous solution) | Arsenic (As) Adsorption rate ([5]; content 0.5%) | Arsenic (As) Adsorption amount ([5]; content 1.0% aqueous solution) | Arsenic (As) Adsorption rate ([5]; content 1.0%) | also measured
O=C(O)c1ccc(N2CCN(c3ccc(C(=O)O)cc3)CCN(c3ccc(C(=O)O)cc3)CCN(c3ccc(C(=O)O)cc3)CC2)cc1 [Embodiment 6, 4,4′,4″,4′″-(1,4,7,10-tetraazacyclododecane-1,4,7,10-tetrayl)tetrabenzoic Acid] | ≤5 ppm | 0.183 mAU*min | 0 mAU*min | 0.305 mAU*min | 81 ppm | 165% | 83 ppm | 169% | 87 ppm | 178% | 61 ppm | 149% | 69 ppm | 168% | 77 ppm | 188% | 42 ppm | 168% | 45 ppm | 180% | Arsenic (As) Adsorption amount ([5]; content 2.0% aqueous solution): 48 ppm; Arsenic (As) Adsorption rate ([5]; content 2.0%): 192%; Test result (number of subject) (+) (human skin; content 0.1 wt %): 0; Test result (number of subject) (++) (human skin; content 0.1 wt %): 0; Test result (number of subject) (±) (human skin; content 0.1 wt %): 0; Test result (number of subject) (−) (human skin; content 0.1 wt %): 20; Degree of irritation (human skin; content 0.1 wt %): 0; Grade for skin irritation (human skin; content 0.1 wt %): I (Degree of irritation 0-0.1: Grade I (unstimulated)); Test result (number of subject) (+) (human skin; content 0.5 wt %): 0; Test result (number of subject) (++) (human skin; content 0.5 wt %): 0; Test result (number of subject) (±) (human skin; content 0.5 wt %): 0; Test result (number of subject) (−) (human skin; content 0.5 wt %): 20; Degree of irritation (human skin; content 0.5 wt %): 0; Grade for skin irritation (human skin; content 0.5 wt %): I (Degree of irritation 0-0.1: Grade I (unstimulated)); Test result (number of subject) (+) (human skin; content 1.0 wt %): 0; Test result (number of subject) (++) (human skin; content 1.0 wt %): 0; Test result (number of subject) (±) (human skin; content 1.0 wt %): 1; Test result (number of subject) (−) (human skin; content 1.0 wt %): 19; Degree of irritation (human skin; content 1.0 wt %): 0.05; Grade for skin irritation (human skin; content 1.0 wt %): I (Degree of irritation 0-0.1: Grade I (unstimulated))
O=C(O)c1cncc(N2CCN(c3cncc(C(=O)O)c3)CCN(c3cncc(C(=O)O)c3)CCN(c3cncc(C(=O)O)c3)CC2)c1 [Embodiment 7, 5,5′,5″,5′″-(1,4,7,10-tetraazacyclododecane-1,4,7,10-tetrayl)tetranicotinic Acid] | ≤5 ppm | 0.181 mAU*min | 0 mAU*min | 0.305 mAU*min | 92 ppm | 188% | 97 ppm | 198% | 102 ppm | 208% | 62 ppm | 151% | 72 ppm | 176% | 76 ppm | 185% | 41 ppm | 164% | 45 ppm | 180% | Arsenic (As) Adsorption amount ([5]; content 2.0% aqueous solution): 51 ppm; Arsenic (As) Adsorption rate ([5]; content 2.0%): 204%; Test result (number of subject) (+) (human skin; content 0.1 wt %): 0; Test result (number of subject) (++) (human skin; content 0.1 wt %): 0; Test result (number of subject) (±) (human skin; content 0.1 wt %): 0; Test result (number of subject) (−) (human skin; content 0.1 wt %): 20; Degree of irritation (human skin; content 0.1 wt %): 0; Grade for skin irritation (human skin; content 0.1 wt %): I (Degree of irritation 0-0.1: Grade I (unstimulated)); Test result (number of subject) (+) (human skin; content 0.5 wt %): 0; Test result (number of subject) (++) (human skin; content 0.5 wt %): 0; Test result (number of subject) (±) (human skin; content 0.5 wt %): 0; Test result (number of subject) (−) (human skin; content 0.5 wt %): 20; Degree of irritation (human skin; content 0.5 wt %): 0; Grade for skin irritation (human skin; content 0.5 wt %): I (Degree of irritation 0-0.1: Grade I (unstimulated)); Test result (number of subject) (+) (human skin; content 1.0 wt %): 0; Test result (number of subject) (++) (human skin; content 1.0 wt %): 0; Test result (number of subject) (±) (human skin; content 1.0 wt %): 0; Test result (number of subject) (−) (human skin; content 1.0 wt %): 20; Degree of irritation (human skin; content 1.0 wt %): 0; Grade for skin irritation (human skin; content 1.0 wt %): I (Degree of irritation 0-0.1: Grade I (unstimulated))
